Measured values from ChEMBL document CHEMBL1909046, “DrugMatrix in vitro pharmacology data”.

Assays:
[1] = biological target: T1, Alpha-1A adrenergic receptor (Rattus norvegicus, UniProt P43140); test: DRUGMATRIX: Alpha-1A adrenergic receptor radioligand binding (ligand: prazosin); assay type: cell membranes, Wistar, Submaxillary gland, Membrane; settings: Not Active = under 50% inhibition at 10 µM
T1 sequence (P43140 whole entry): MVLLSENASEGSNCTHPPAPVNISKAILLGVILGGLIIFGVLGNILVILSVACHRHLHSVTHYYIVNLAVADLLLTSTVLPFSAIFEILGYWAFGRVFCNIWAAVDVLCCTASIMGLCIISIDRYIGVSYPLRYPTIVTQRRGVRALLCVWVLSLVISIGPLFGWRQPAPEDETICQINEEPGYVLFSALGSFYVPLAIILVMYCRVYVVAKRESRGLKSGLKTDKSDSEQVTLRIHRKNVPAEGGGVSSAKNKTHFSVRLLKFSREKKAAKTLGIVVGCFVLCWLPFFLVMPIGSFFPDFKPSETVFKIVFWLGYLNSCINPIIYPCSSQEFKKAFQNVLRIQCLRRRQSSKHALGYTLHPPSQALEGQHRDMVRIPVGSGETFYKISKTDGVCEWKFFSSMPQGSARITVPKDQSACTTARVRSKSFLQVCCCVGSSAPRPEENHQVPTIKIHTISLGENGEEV

[2] = DRUGMATRIX: Phorbol Ester radioligand binding (ligand: [3H] PDBu); assay type: cell membranes, Mus musculus, ICR, Brain, Membrane; settings: Not Active = under 50% inhibition at 10 µM
[3] = biological target: Sodium-dependent dopamine transporter (Homo sapiens, UniProt Q01959); test: DRUGMATRIX: Dopamine Transporter radioligand binding (ligand: [125I] RTI-55); assay type: cell membranes, CHO-K1, Membrane; settings: Not Active = under 50% inhibition at 10 µM; for Ki: read-out: Ki
Sequence of Sodium-dependent dopamine transporter (Q01959 whole entry): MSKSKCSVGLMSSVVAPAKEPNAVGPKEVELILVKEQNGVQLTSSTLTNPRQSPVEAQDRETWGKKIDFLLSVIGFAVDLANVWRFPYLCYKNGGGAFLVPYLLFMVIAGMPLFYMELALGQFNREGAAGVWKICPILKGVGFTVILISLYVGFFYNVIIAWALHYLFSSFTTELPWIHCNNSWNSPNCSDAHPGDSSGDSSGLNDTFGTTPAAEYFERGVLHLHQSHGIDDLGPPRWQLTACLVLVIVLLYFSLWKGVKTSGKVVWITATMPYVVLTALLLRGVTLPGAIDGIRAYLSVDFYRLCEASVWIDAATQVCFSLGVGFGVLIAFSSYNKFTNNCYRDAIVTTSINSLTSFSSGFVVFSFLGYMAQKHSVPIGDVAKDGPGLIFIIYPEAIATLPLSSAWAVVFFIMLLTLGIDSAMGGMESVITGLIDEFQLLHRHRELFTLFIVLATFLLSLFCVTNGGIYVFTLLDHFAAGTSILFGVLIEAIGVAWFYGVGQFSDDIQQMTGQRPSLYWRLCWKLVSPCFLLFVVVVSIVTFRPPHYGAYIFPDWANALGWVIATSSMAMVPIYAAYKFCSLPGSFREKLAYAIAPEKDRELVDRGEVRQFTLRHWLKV

[4] = DRUGMATRIX: Potassium Channel [KATP] radioligand binding (ligand: [3H] Glyburide); assay type: cell membranes, Membrane; settings: hit-t15; Not Active = under 50% inhibition at 10 µM
[5] = DRUGMATRIX: Calcium Channel Type L, Benzothiazepine radioligand binding (ligand: [3H] Diltiazem); assay type: cell membranes, Rattus norvegicus, Wistar, Brain, Membrane; settings: Not Active = under 50% inhibition at 10 µM
[6] = biological target: cGMP-specific 3',5'-cyclic phosphodiesterase (Homo sapiens, UniProt O76074); test: DRUGMATRIX: Phosphodiesterase PDE5 enzyme inhibition (substrate: [3H]cGMP + cGMP); assay type: tissue-based, Platelet; settings: platelet; Not Active = under 50% inhibition at 10 µM

Structure (SMILES)	IC50 [1]	IC50 [2]	Ki [2]	IC50 ([3]; read-out: IC50)	Ki [3]	IC50 [4]	Ki [4]	IC50 [5]	Ki [5]	IC50 [6]	IC50 ([3]; cho-k1)
CC(C)(c1ccc(O)cc1)c1ccc(O)cc1 [BISPHENOL A]	Not Active	Not Active	Not Active	19 µM	15.1 µM	Not Active	Not Active	Not Active	Not Active	Not Active	
CC12CCC(CC1=O)C2(C)C (stereo not given) [CAMPHOR]	Not Active	Not Active	Not Active			Not Active	Not Active	Not Active	Not Active	Not Active	Not Active
O=C(O)c1ccccc1 [BENZOIC ACID]	Not Active	Not Active	Not Active			Not Active	Not Active	Not Active	Not Active	Not Active	Not Active
Oc1ncnc2[nH]ncc12 [ALLOPURINOL]	Not Active	Not Active	Not Active			Not Active	Not Active	Not Active	Not Active	Not Active	Not Active
NC(=O)CN1CCCC1=O	Not Active	Not Active	Not Active			Not Active	Not Active	Not Active	Not Active	Not Active	Not Active
C=CCO [ALLYL ALCOHOL]	Not Active	Not Active	Not Active			Not Active	Not Active	Not Active	Not Active	Not Active	Not Active
CCN1CCN(C(=O)N[C@@H](C(=O)N[C@@H]2C(=O)N3[C@@H]2SC(C)(C)[C@@H]3C(=O)O)c2ccccc2)C(=O)C1=O [PIPERACILLIN]	Not Active	Not Active	Not Active			Not Active	Not Active	Not Active	Not Active	Not Active	Not Active
CCCCCCNC(=O)n1cc(F)c(=O)[nH]c1=O [CARMOFUR]	Not Active	Not Active	Not Active			Not Active	Not Active	Not Active	Not Active	Not Active	Not Active
CCN(CCO)CCCC(C)Nc1ccnc2cc(Cl)ccc12 (stereo not given) [HYDROXYCHLOROQUINE]	Not Active	Not Active	Not Active			Not Active	Not Active	Not Active	Not Active	Not Active	Not Active
Clc1cc(Cl)c(OCC#CI)cc1Cl [HALOPROGIN]	Not Active	Not Active	Not Active	1.97 µM	1.56 µM	Not Active	Not Active	Not Active	Not Active	Not Active	
O=c1[nH]cnc2c1ncn2[C@H]1CC[C@@H](CO)O1 [DIDANOSINE]	Not Active	Not Active	Not Active			Not Active	Not Active	Not Active	Not Active	Not Active	Not Active
Cl.NC[C@H]1CC[C@H](C(=O)Oc2ccc(CCC(=O)O)cc2)CC1 [CETRAXATE HYDROCHLORIDE]	Not Active	Not Active	Not Active			Not Active	Not Active	Not Active	Not Active	Not Active	Not Active
COc1cc([C@@H]2c3cc4c(cc3[C@H](O)[C@H]3COC(=O)[C@H]23)OCO4)cc(OC)c1OC [PODOFILOX]	Not Active	Not Active	Not Active			Not Active	Not Active	Not Active	Not Active	Not Active	Not Active
COc1cc(/C=C/C(=O)O)ccc1O [FERULATE]	Not Active	Not Active	Not Active			Not Active	Not Active	Not Active	Not Active	Not Active	Not Active
O=C(O)CCc1nc(-c2ccccc2)c(-c2ccccc2)o1 [OXAPROZIN]	Not Active	Not Active	Not Active			Not Active	Not Active	Not Active	Not Active	Not Active	Not Active
c1ccc(Cn2ccnc2)cc1	Not Active	Not Active	Not Active			Not Active	Not Active	Not Active	Not Active	Not Active	Not Active
C[C@H]1C[C@H]2[C@@H]3CCC4=CC(=O)C=C[C@]4(C)[C@@]3(F)[C@@H](O)C[C@]2(C)[C@@]1(O)C(=O)CO [BETAMETHASONE]	Not Active	Not Active	Not Active			Not Active	Not Active	Not Active	Not Active	Not Active	Not Active
Nc1nc(N)c2nc(CNc3ccc(C(=O)N[C@@H](CCC(=O)O)C(=O)O)cc3)cnc2n1 [AMINOPTERIN]	Not Active	Not Active	Not Active			Not Active	Not Active	Not Active	Not Active	Not Active	Not Active
CC(=O)Nc1ccc2c(c1)Cc1ccccc1-2 [2-ACETYLAMINOFLUORENE]	Not Active	Not Active	Not Active			Not Active	Not Active	Not Active	Not Active	Not Active	Not Active
C=C(Cl)Cl [1,1-DICHLOROETHENE]	Not Active	Not Active	Not Active			Not Active	Not Active	Not Active	Not Active	Not Active	Not Active
C#C[C@]1(O)CC[C@H]2[C@@H]3CCC4=CC(=O)CC[C@@H]4[C@H]3CC[C@@]21C [NORETHINDRONE]	Not Active	Not Active	Not Active			Not Active	Not Active	Not Active	Not Active	Not Active	Not Active
CC[C@H]1OC(=O)[C@H](C)[C@@H](O[C@H]2C[C@@](C)(OC)[C@@H](O)[C@H](C)O2)[C@H](C)[C@@H](O[C@@H]2O[C@H](C)C[C@H](N(C)C)[C@H]2O)[C@](C)(O)C[C@@H](C)C(=O)[C@H](C)[C@@H](O)[C@]1(C)O [ERYTHROMYCIN]	Not Active	Not Active	Not Active			Not Active	Not Active	Not Active	Not Active	Not Active	Not Active
c1ccc2c(c1)Nc1ccccc1S2 [PHENOTHIAZINE]	Not Active	Not Active	Not Active	18.6 µM	14.8 µM	Not Active	Not Active	Not Active	Not Active	Not Active	
C[C@H](C(=O)O)c1ccc2oc(-c3ccc(F)cc3)nc2c1 [FLUNOXAPROFEN]	Not Active	Not Active	Not Active			Not Active	Not Active	Not Active	Not Active	Not Active	Not Active
CC1(COc2ccc(CC3SC(=O)NC3=O)cc2)CCCCC1 (stereo not given) [CIGLITAZONE]	Not Active	Not Active	Not Active			Not Active	Not Active	Not Active	Not Active	Not Active	Not Active
C=CCN1CC[C@]23c4c5ccc(O)c4O[C@H]2/C(=N/N=C2\CC[C@@]4(O)[C@H]6Cc7ccc(O)c8c7[C@@]4(CCN6CC=C)[C@H]2O8)CC[C@@]3(O)[C@H]1C5 [NALOXONAZINE]	Not Active	Not Active	Not Active			Not Active	Not Active	Not Active	Not Active	Not Active	Not Active
C[N+](C)(C)CCOP(=O)([O-])OC[C@H](O)CO	Not Active	Not Active	Not Active			Not Active	Not Active	Not Active	Not Active	Not Active	Not Active
CCC1(c2ccccc2)C(=O)NC(=O)NC1=O [PHENOBARBITAL]	Not Active	Not Active	Not Active			Not Active	Not Active	Not Active	Not Active	Not Active	Not Active
